Our source for the IC50 values is US11040028B2, “Penicinotam derivative, preparation method and use thereof” (OCEAN UNIVERSITY OF CHINA, priority 2017, dated 2021).

Holding throughout (format): cell-based
Test [1] relates to cardiac fibroblast RAT-iCell-C002. Put plainly: Anti-fibrosis activity test: inhibition of proliferation of cardiac fibroblast RAT-iCell-C002 (CCK-8). The settings on record: Cardiac fibroblast, 48 h, cardiac fibroblast RAT-iCell-C002, CCK-8, 48 hours. In outline: (§1)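 Seed 2×10^4 cells/mL; adhere 24 h, 37° C/5% CO2. Compounds, serial concentrations, triplicate, 48 h. CCK-8 2 h, A450. IR=(1−Ai/Ao)×100% vs blank; IC50 fitted. Pirfenidone as positive control.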

Test [2] has as its system mouse macrophages (RAW264.7). The test can be described thus: Lipopolysaccharide-induced NO secretion in macrophages (Griess). The settings on record: Mus musculus, RAW264.7, 24 h, RAW264.7, LPS 1 μg/ml, a/b isomers given as first/second symbol, read-out: IC50 (μM), inhibition of lipopolysaccharide-induced NO secretion in macrophages. Put shortly:
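LPS 1 μg/ml, 24 h, RAW264.7 (DMEM/10% FBS); cpds at varied concs. Supernatant NO by Griess, A548; % inhibition vs blank medium.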
Background: The Griess reaction detects nitrite, a stable product of nitric oxide.

The test system of test [3] is human hepatic stellate cells LX-2. The test can be described thus: Anti-fibrosis activity test: inhibition of proliferation of human hepatic stellate cells LX-2 (CCK-8). The settings on record: Homo sapiens, 48 h, human hepatic stellate cells LX-2, CCK-8, 48 hours. Put shortly: as §1
The subject of test [4] is human embryonic lung fibroblast IMR-90. The test can be described thus: Anti-fibrosis activity test: inhibition of proliferation of human embryonic lung fibroblast IMR-90 (CCK-8). The note with it: human embryonic lung fibroblast IMR-90, CCK-8, 48 hours. Put shortly: as §1
In test [5] the test system is human dermal fibroblasts CCC-ESF-1. The test can be described thus: Anti-fibrosis activity test: inhibition of proliferation of human dermal fibroblasts CCC-ESF-1 (CCK-8). The settings on record: Fibroblast; human dermal fibroblasts CCC-ESF-1, CCK-8, 48 hours. In outline:
as §1

In the next test the test system is BHK-21 cells. The test can be described thus: Anti-fibrosis activity test: inhibition of BHK-21 cell proliferation (CCK-8). The settings on record: Mesocricetus auratus, BHK-21, 48 h, CCK-8, 48 hours after administration. In outline: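 Cells plated 2×10^4 cells/mL; 24 h attach; compound dilutions, triplicate, 48 h, 37° C/5% CO2; CCK-8 2 h; A450; IR = (1−Ai/Ao)×100%; IC50 by curve fit.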

Test [6] concerns human fibrosarcoma cells HT-1080. The test can be described thus: Anti-fibrosis activity test: inhibition of proliferation of human fibrosarcoma cells HT-1080 (CCK-8). The settings on record: Homo sapiens, HT-1080, 48 h, human fibrosarcoma cells HT-1080, CCK-8, 48 hours. Put shortly:
as §1

Test [7] has as its system human lung fibroblasts HFL1. Put plainly: Anti-fibrosis activity test: inhibition of proliferation of human lung fibroblasts HFL1 (CCK-8). The settings on record: Homo sapiens, HFL1, 48 h, human lung fibroblasts HFL1, CCK-8, 48 hours. In outline:
as §1

The test system of the next test is NF-κB. Put plainly: Immunological activity test: inhibition of NF-κB activity. The note with it: initial concentration of 30 μM; a/b isomers given as first/second symbol; read-out: IC50 (μM), inhibitory activity against NF-κB. In outline:
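Parthenolide as positive control; starting test concentration 30 μM; inhibition of NF-κB activity analysed further to yield IC50.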

The IC50 is the concentration that inhibits the measured activity by half. Regarding `O=C1c2c(n(Cc3ccccc3Cl)c3ccccc3c2=O)-c2cccn21` [Compound 600a, 4-(2-Chlorobenzyl)-9H-pyrrolizino[1,2-b]quinoline-9,10(4H)-dione], the IC50 lay within 0.05 to 5 mM in test [1]; 0.1 to 1 µM in test [2]; 0.05 to 5 mM in [3]; 0.05 to 5 mM in test [4]; 0.05 to 5 mM in test [5]; 0.05 to 5 mM in the test with BHK-21 cells. In addition, the half-maximal inhibitory concentration (IC50) in test [6] is 0.05 to 5 mM; in test [7] it was 0.05 to 5 mM; in the test on NF-κB it was 0.1 to 1 µM.
Regarding `O=C1c2c(nc3ccccc3c2OCc2ccccc2Cl)-c2cccn21` [Compound 600b, 9-((2-chlorobenzyl)oxy)-10H-pyrrolizino[1,2-b]quinolin-10-one], the IC50 was 0.05 to 5 mM in test [1]; 1 to 10 µM in [2]; 0.05 to 5 mM in [3]; 0.05 to 5 mM in [4]; 0.05 to 5 mM in [5]; 0.05 to 5 mM in the test on BHK-21 cells. In addition, the IC50 in [6] lay within 0.05 to 5 mM; in test [7], 0.05 to 5 mM; in the test with NF-κB, 1 to 10 µM.
With `O=C1c2c(n(Cc3ccc(F)c(F)c3)c3ccccc3c2=O)-c2cccn21` [Compound 601a, 4-(3,4-Difluorobenzyl)-9H-pyrrolizino[1,2-b]quinoline-9,10(4H)-dione], the IC50 lay within 0.05 to 5 mM in test [1]; 1 to 10 µM in [2]; 0.05 to 5 mM in test [3]; 0.05 to 5 mM in [4]; 0.05 to 5 mM in test [5]; 0.05 to 5 mM in the test on BHK-21 cells. Further, the IC50 in test [6] is 0.05 to 5 mM; in [7] it was 0.05 to 5 mM; with NF-κB, 1 to 10 µM.
On to `O=C1c2c(nc3ccccc3c2OCc2ccc(F)c(F)c2)-c2cccn21` [Compound 601b, 9-((3,4-difluorobenzyl)oxy)-10H-pyrrolizino[1,2-b]quinolin-10-one], for which the IC50 in test [1] was in the range of 0.05 to 5 mM; in [2], 1 to 10 µM; in test [3] it was 0.05 to 5 mM; in test [4] it was 0.05 to 5 mM; in test [5] it was 0.05 to 5 mM; in the test on BHK-21 cells, 0.05 to 5 mM. The IC50 in [6] fell in the range of 0.05 to 5 mM; in test [7], 0.05 to 5 mM; in the test with NF-κB, 1 to 10 µM.
As to `O=C1c2c(n(Cc3ccc(Cl)cc3F)c3ccccc3c2=O)-c2cccn21` [Compound 602a, 4-(4-Chloro-2-fluorobenzyl)-9H-pyrrolizino[1,2-b]quinoline-9,10(4H)-dione], the IC50 lay in the range of 0.05 to 5 mM in test [1]; 1 to 10 µM in test [2]; 0.05 to 5 mM in test [3]; 0.05 to 5 mM in test [4]; 0.05 to 5 mM in test [5]; 0.05 to 5 mM with BHK-21 cells. In addition, the IC50 lay within 0.05 to 5 mM in test [6], 0.05 to 5 mM in test [7] and 1 to 10 µM in the test on NF-κB.
In the case of `O=C1c2c(nc3ccccc3c2OCc2ccc(Cl)cc2F)-c2cccn21` [Compound 602b, 9-((4-chloro-2-fluorobenzyl)oxy)-10H-pyrrolizino[1,2-b]quinolin-10-one], the IC50 was 0.05 to 5 mM in [1]; 1 to 10 µM in [2]; 0.05 to 5 mM in test [3]; 0.05 to 5 mM in test [4]; 0.05 to 5 mM in test [5]; 0.05 to 5 mM in the test with BHK-21 cells. In addition, the values for the IC50 (in [6]; in test [7]; in the test with NF-κB) were 0.05 to 5 mM, 0.05 to 5 mM and 1 to 10 µM, respectively.
Turning to `O=C1c2c(n(Cc3ccc(F)c(Cl)c3)c3ccccc3c2=O)-c2cccn21` [Compound 603a, 4-(3-Chloro-4-fluorobenzyl)-9H-pyrrolizino[1,2-b]quinoline-9,10(4H)-dione], the concentration for half-maximal inhibition (IC50) in test [1] is 0.05 to 5 mM; in [2], 1 to 10 µM; in test [3] it was 0.05 to 5 mM; in test [4], 0.05 to 5 mM; in [5] it was 0.05 to 5 mM; in the test with BHK-21 cells it was less than 0.05 mM. Moreover, the IC50 in test [6] lay in the range of 0.05 to 5 mM; in test [7], 0.05 to 5 mM; in the test with NF-κB it was 1 to 10 µM.
As for `O=C1c2c(nc3ccccc3c2OCc2ccc(F)c(Cl)c2)-c2cccn21` [Compound 603b, 9-((3-chloro-4-fluorobenzyl)oxy)-10H-pyrrolizino[1,2-b]quinolin-10-one], the IC50 in [1] lay in the range of 0.05 to 5 mM; in test [2] it was 1 to 10 µM; in [3], 0.05 to 5 mM; in test [4] it was 0.05 to 5 mM; in test [5], 0.05 to 5 mM; in the test with BHK-21 cells, 0.05 to 5 mM. The IC50 in [6] was in the range of 0.05 to 5 mM; in test [7] it was 0.05 to 5 mM; in the test with NF-κB, 1 to 10 µM.
`Cc1ccc(Cn2c3c(c(=O)c4ccccc42)C(=O)n2cccc2-3)cc1` [Compound 604a, 4-(4-Methylbenzyl)-9H-pyrrolizino[1,2-b]quinoline-9,10(4H)-dione]: the IC50 fell in the range of 0.05 to 5 mM in test [1]; 1 to 10 µM in test [2]; 0.05 to 5 mM in test [3]; 0.05 to 5 mM in test [4]; 0.05 to 5 mM in test [5]; 0.05 to 5 mM with BHK-21 cells. For the same compound, the IC50 in test [6] is less than 0.05 mM; in test [7], 0.05 to 5 mM; in the test on NF-κB, 1 to 10 µM.
Take `Cc1ccc(COc2c3c(nc4ccccc24)-c2cccn2C3=O)cc1` [Compound 604b, 9-((4-methylbenzyl)oxy)-10H-pyrrolizino[1,2-b]quinolin-10-one]: the IC50 fell in the range of 0.05 to 5 mM in [1]; 1 to 10 µM in test [2]; 0.05 to 5 mM in [3]; 0.05 to 5 mM in test [4]; 0.05 to 5 mM in [5]; 0.05 to 5 mM in the test with BHK-21 cells. In addition, the IC50 in test [6] fell in the range of 0.05 to 5 mM; in [7], 0.05 to 5 mM; with NF-κB, 1 to 10 µM.
Regarding `CC(C)(C)c1ccc(Cn2c3c(c(=O)c4ccccc42)C(=O)n2cccc2-3)cc1` [Compound 605a, 4-(4-(Tert-butyl)benzyl)-9H-pyrrolizino[1,2-b]quinoline-9,10(4H)-dione], the IC50 in [1] fell in the range of 0.05 to 5 mM; in [2], 1 to 10 µM; in test [3], 0.05 to 5 mM; in [4], 0.05 to 5 mM; in test [5], 0.05 to 5 mM; in the test on BHK-21 cells it was 0.05 to 5 mM. Besides, the results for the IC50 (in test [6]; in test [7]; with NF-κB) were 0.05 to 5 mM, 0.05 to 5 mM and 1 to 10 µM, respectively.
Turning to `CC(C)(C)c1ccc(COc2c3c(nc4ccccc24)-c2cccn2C3=O)cc1` [Compound 605b, 9-((4-(tert-butyl)benzyl)oxy)-10H-pyrrolizino[1,2-b]quinolin-10-one], the IC50 is 0.05 to 5 mM in test [1]; 1 to 10 µM in test [2]; 0.05 to 5 mM in test [3]; 0.05 to 5 mM in test [4]; 0.05 to 5 mM in test [5]; 0.05 to 5 mM in the test with BHK-21 cells. The IC50 in test [6] was 0.05 to 5 mM; in [7], 0.05 to 5 mM; with NF-κB it was 1 to 10 µM.
Consider `O=C1c2c(n(Cc3ccc(Br)cc3F)c3ccccc3c2=O)-c2cccn21` [Compound 606a, 4-(4-Bromo-2-fluorobenzyl)-9H-pyrrolizino[1,2-b]quinoline-9,10(4H)-dione], for which the IC50 was 0.05 to 5 mM in test [1]; 1 to 10 µM in test [2]; 0.05 to 5 mM in test [3]; 0.05 to 5 mM in test [4]; 0.05 to 5 mM in [5]; less than 0.05 mM with BHK-21 cells. For the same compound, the IC50 is less than 0.05 mM in test [6], 0.05 to 5 mM in test [7] and 0.1 to 1 µM in the test on NF-κB.
